# In article PMC12410356 (International Journal for Parasitology: Drugs and Drug …, 2025):
# Like-named read-outs stand apart in the source and are kept apart here.
# Experiments:
# [1] = tested on: E. multilocularis GL cells; assay: Seahorse mito cell stress test, oxygen consumption rate; assay type: cell-based, Echinococcus multilocularis; details: titration in GL cells
# Experimental: To measure mitochondrial respiration in E. multilocularis GL cells, Seahorse “mito cell stress test” was performed according to the manual for Seahorse XFp Extracellular Flux Analyzer (Agilent Technologies, Basel, Switzerland) with some adaptations ([Gu et al., 2021]; [Rufener et al., 2018]). Seahorse XFp 8-well plates were hydrated and incubated together with Seahorse XF calibrant solution at 37 °C in a non-CO2 incubator overnight the day before the actual experiment. […] Oligomycin was used at a final concentration of 1.5 μM. […] The experiment was repeated three times independently with two technical replicates.
# [2] = tested on: E. multilocularis metacestode vesicles; details: PGI release after five days; ref Stadelmann et al., 2016; cited from earlier work
# [3] = tested on: Reuber rat hepatoma (RH) cells; details: ref Stadelmann et al., 2016, cited from earlier work
# [4] = tested on: E. multilocularis GL cells; set-up: method as in Stadelmann et al., 2016; details: ref Stadelmann et al., 2016; cited from earlier work
# [5] = tested on: E. multilocularis metacestode vesicles; assay: Phosphoglucose isomerase (PGI) release assay (damage-marker release) on metacestode vesicles; assay type: cell-based, Echinococcus multilocularis; details: 10 μM; for PGI d5 (relative PGI release): 5 days; for PGI d12 (relative PGI release): 12 days
# [6] = tested on: Reuber rat hepatoma (RH) cells; assay: Mammalian cell toxicity, resazurin assay; assay type: cell-based; details: for IC50: Rattus norvegicus, 120 h, 5 days incubation, mean ± SD
# Experimental: Mammalian cell toxicity on RH cells was measured as described in [Rufener et al. (2018)] with few alterations. Briefly, confluent (50′000 cells/well) and pre-confluent (5′000 cells/well) were seeded into 96-well plates in DMEM supplemented with 10 % FBS, penicillin (100 U/mL), streptomycin (100 μg/mL) and tetracycline (5 μg/mL) and incubated at 37 °C under a humid, 5 % CO2 atmosphere for 24 h and 5 h respectively. Alexidine, ESI-09 and MMV1581545 were added to final concentrations ranging from 120 to 0.49 μM (1:3 serial dilution) to each well and then cells were incubated at 37 °C under a humid, 5 % CO2 atmosphere for 5 days. To measure viability, the medium was removed, 180 μL of PBS was added to the cells and resazurin was added to each well to a final concentration of 10 mg/L. The cells were then allowed to process the resazurin at RT for 1 h. Fluorescence was measured on a HIDEX Sense microplate reader. Measurements were performed in triplicates and IC50 values were calculated in R using the three parameter Weibull type 1 model for three independent experiments ([Ritler et al., 2020]).
# HUVEC cell line = tested on: HUVEC cell line; set-up: method as in Mamouei et al., 2018; details: at 15 μM; ref Mamouei et al., 2018; cited from earlier work
# [7] = tested on: E. multilocularis GL cells; assay: Germinal layer cell viability assay (CellTiter-Glo); assay type: cell-based, Echinococcus multilocularis
# Experimental: The isolation of GL cells was conducted according to ([Kaethner et al., 2023]). Briefly, conditioned DMEM (cDMEM) was prepared prior to isolation. For the preparation of cDMEM, 1 × 10^6 RH cells and 10 × 10^6 RH cells incubated in DMEM supplemented with 10 % FBS, penicillin (100 U/mL), streptomycin (100 μg/mL) and tetracycline (5 μg/mL) for six or four days, respectively, at 37 °C under a humid, 5 % CO2 atmosphere. The supernatant of each was mixed 1:1 and sterile filtrated, resulting in cDMEM. Metacestode vesicles of at least 6 months of age were washed with PBS, incubated in distilled H2O for 2.5 min and subsequently mechanically disrupted. The resulting pellet was resuspended in 7 vol of pre-warmed 0.05 % Trypsin/0.02 % EDTA and incubated at 37 °C for 30 min. GL cells were extracted from the laminated layer by vigorous shaking followed by filtration through a 30 μm mesh (Sefar AG, Heiden, Switzerland) and separated from calcareous corpuscles by short centrifugation at 50×g for 30 s at RT. The isolated cells were centrifuged for 10 min at 600×g and RT and the pellet was resuspended in cDMEM. The cell suspension was diluted 1:100 in PBS to measure the OD600. An OD600 value of 0.1 of this dilution was defined as one arbitrary unit (AU) per μL of the undiluted cell suspension corresponding to 0.97 ± 0.11 μg of total protein for the GL cells as measured via Pierce™ bicinchoninic acid (BCA) Protein Assay Kit according to the manufacturer's protocol (Fisher Scientific AG, Reinach, Switzerland). 1′000 AU per 5 mL of cDMEM were cultured at 37 °C overnight under a humid nitrogen atmosphere. The next day, 2′000 AU of GL cells were combined and further cultured for 3 h at 37 °C under a humid nitrogen atmosphere before they were used for further experiments.
# To assess effects of compounds on the cell viability of isolated E. multilocularis GL cells, the protocol was applied as previously described ([Kaethner et al., 2023]). In short, 15 AU of GL cells were distributed into each well of a black 384-well plate. Compounds dissolved in DMSO (alexidine, carbendazim, ESI-09, MMV1581545 and oxfendazole) were added to final concentrations ranging from 80 to 0.31 μM (1:2 serial dilution) and the cells were cultured for 5 days at 37 °C under a humid, microaerobic atmosphere (85 % N2, 10 % CO2, 5 % O2). DMSO with the respective concentration was used as a solvent control. Viability was measured using the CellTiter-Glo® kit. Luminescence was measured using a HIDEX Sense microplate reader. Measurements were done in quadruplicates and represented as relative viability of the DMSO controls. IC50 values were calculated in R applying the five parameter logistic model for three independent experiments ([Ritler et al., 2020]).
# [8] = tested on: E. multilocularis metacestode vesicles; assay: Metacestode vesicle viability assay (ATP, CellTiter-Glo); assay type: cell-based, Echinococcus multilocularis; details: Echinococcus multilocularis, 288 h, 10 μM, 12 days, read-out: Viability d12 (relative viability)
# Experimental: Viability was assessed after 12 days using the same metacestode vesicles as for the PGI release assay. Triton X-100 was added to each well to a final concentration of 0.1 %. Subsequently the metacestode vesicles were broken mechanically and 50 μL of the supernatant was mixed with 50 μL of CellTiter-Glo® buffer (Promega, Dübendorf, Switzerland). Measurements were performed on a HIDEX Sense microplate reader.
# [9] = confluent, read-out: IC50 confluent RH cells
# [10] = pre-confluent, read-out: IC50 pre-confluent RH cells
# [11] = confirmation screen, triplicates, mean
# [12] = overview screen, singlets, relative to 0.1 % Triton X-100, DMSO subtracted
compound,measurement,setting,value
N#CC(C#N)=NNc1ccc(OC(F)(F)F)cc1 [FCCP],optimal (maximal) uncoupling concentration,[1],0.4 µM
O=C(Nc1cccc(C(F)(F)F)c1)c1cc(Cl)ccc1O [MMV665807],IC50,[2],1.2 ± 1.6 µM
same,IC50,[3]; [9],20.5 ± 0.13 µM
same,IC50,[3]; [10],4.8 ± 0.59 µM
same,IC50,[4],0.6 ± 0.37 µM
"CCCCC(CC)CNC(=N)NC(=N)NCCCCCCNC(=N)NC(=N)NCC(CC)CCCC (stereo not drawn) [alexidine, reference compound]",PGI d5 (relative PGI release),[5]; [11],32.36%
same,PGI d12 (relative PGI release),[5]; [11],76.1 ± 3.2%
same,PGI d12 (relative PGI release),"[5]; confirmation screen, triplicates, mean, listed as MMV396785",76.16%
same,PGI d5 (relative PGI release),[5]; [12],68.8052%
same,PGI d12 (relative PGI release),[5]; [12],92.491%
same,toxicity against mammalian cell line (in words),[6]; RH cells counter-screen,highly toxic
same,IC50,[6]; [9],5.97 ± 4.89 µM
same,IC50,[6]; [10],2.8 ± 1.33 µM
same,toxicity in the HUVEC cell line (in words),HUVEC cell line,severe toxicity
same,effect on GL cell viability (in words),"[7]; 80 to 0.31 μM, 5 days",highly effective
same,IC50,"[7]; Echinococcus multilocularis, 120 h, 5 days incubation, microaerobic, mean ± SD of three independent experiments",10.7 ± 1.13 µM
same,viability at 10 µM,[8]; [11],34.4 ± 0.9%
same,viability at 10 µM,"[8]; overview screen, singlets, relative to DMSO control",4.93%
